Experimental findings from patent US7183394B1, “Helical nucleopeptides” (priority 2000, dated 2007) are described below.

Common to all, as to assay type: binding
Experiment [1] deals with d(A3AGGAGA3). In words: Thermal UV denaturation (Tm), antiparallel target d(A3AGGAGA3). To be noted: antiparallel N/3′; 5 μM each in TE buffer pH 7, incubated overnight at 4° C. Here is the method: (§1) The N-caps investigated consisted of a series of arenyl and aliphatic carboxylic acids. […] Thermal UV denaturation (Tm) data for the equilibria between N-cap-CTCCT and d(A3GAGGAA3) (SEQ. ID NO.: 5) (N/5′ or parallel orientation) and N-cap-CTCCT and d(A3AGGAGA3) (SEQ. ID NO.: 4) (N/3′ or antiparallel orientation) are collected in Table 2. Thermal UV denaturation curves were obtained with sample solutions made by combining the N-capped (αPNA and ssDNA components (5 μM each) in TE buffer (10 mM Tris-HCl, 1 mM EDTA, pH 7). These solutions were then incubated overnight at 4° C.

The test system of a further experiment is d(A3GAGGAA3). In words: Thermal UV denaturation (Tm), parallel target d(A3GAGGAA3). Particulars: for Tm (cooling) / Tm (heating): parallel N/5′, 5 μM each in TE buffer pH 7, incubated overnight at 4° C. Here is the method:
as §1

The test system of the next experiment is d(TA3G5A3T). In words: Thermal denaturation (Tm) of complex with d(TA3G5A3T). To be noted: for Tm (cooling) / Tm (heating): Table 3, N-4-(cyclohexyl)butyryl cap. Here is the method: The α-helical secondary structure (˜26%) of these backbone 1 αPNAs in the absence of DNA was confirmed by circular dichroism (CD) studies in H2O. Both the N-terminal linked (b1) and C-terminal-linked (b1′) cysteine dimers formed complexes with d(A10) in H2O (Table 1, entries 1 and 2). […] The homothymine b1αPNAs required a relatively long incubation period (up to 4 days at 4° C. until constant absorbance was reached) due to the slow kinetics of annealing.
(§2) (Cf. Corey, D. R. J. Am. Chem. Soc. 1995, 117, 9373–9374). […] Even the T5(b2) module hybridized with d(A10) (SEQ ID NO.: 2)—albeit weakly as expected for a complex held together by only A•T base pairs (entry 5). […] This implies that equilibration is being achieved during the cooling cycle. This Tm is 20° C. higher than that of C5(b1)•d(TA3G5A3T) in H2O (compare entries 6 and 7) and 35° C. higher than the corresponding DNA•DNA duplex (in TE-buffer+150 mM NaCl). […] (Marky, L. A.; Breslauer, K. J. Biopolymers 1987, 26, 1601–1620). Added salt was expected to disrupt favorable charge—charge interactions between cationic αPNAs and anionic DNA.
(§3) This reduction in melting temperature presumably arises from residual hydration of the mismatched nucleobases and provides additional support for our proposed Watson-Crick binding model.

In experiment [2] the test system is d(A3GGAGGA3). In words: Thermal denaturation (Tm) of complex with d(A3GGAGGA3). Here is the method: as §2, §3
Experiment [3] concerns d(A3GGAGGA3). In words: CD titration (Job plot) with d(A3GGAGGA3). To be noted: 258 nm, 5° C., total concentration 12 μM, water. Here is the method:
Spectra were recorded at 5° C. using a JASCO J-600 CD spectro-polarimeter. Samples having a total concentration ([αPNA]+[DNA]) of 12 μM were made up in doubly deionized water and placed in a stoppered optical quartz cell (1 cm pathlength). Dry air was purged through the sample compartment. Each data point represents the average of eight (baseline corrected) points. […] This is in line with the PAGE experiment with T5(b2)-dimer and d(C3T(TC2)2A10C(TC2)3) (SEQ. ID NO.: 6).

The test system of experiment [4] is d(A3AGGAGA3). In words: Thermal UV denaturation (Tm), antiparallel target d(A3AGGAGA3). To be noted: Table 1; antiparallel (N/3′) orientation.
[5] abbreviates: Table 3, N-4-(cyclohexyl)butyryl cap.

“3-cyclopentylpropionyl-CTCCT [C5H9CH2CH2CO]”: in the experiment with d(A3AGGAGA3) [1], the “Tm (heating)” value amounted to 33.8 °C. For the same substance, in the experiment with d(A3GAGGAA3), the “Tm (cooling)” value is 38.2 °C and the “Tm (heating)” value was 43.7 °C.

Take “4-(1-pyrenyl)butyryl-CTCCT [1-pyrenyl(CH2)3CO]”: the “Tm (heating)” value in the experiment with d(A3AGGAGA3) [1] was found to be 39.0 °C; with d(A3GAGGAA3) it was 42.6 °C. The “Tm (cooling)” value with d(A3GAGGAA3) came out at 43.8 °C.

As for “4-(2-naphthyl)butyryl-CTCCT [2-naphthyl(CH2)3CO]”, the “Tm (heating)” value in the experiment on d(A3AGGAGA3) [1] was found to be 36.3 °C; with d(A3GAGGAA3), 42.7 °C. The “Tm (cooling)” value in the experiment with d(A3GAGGAA3) is 40.0 °C.

For “4-(p-methoxyphenyl)butyryl-CTCCT [p-MeOC6H4(CH2)3CO]”, the “Tm (heating)” value with d(A3AGGAGA3) [1] stood at 34.2 °C; in the experiment on d(A3GAGGAA3), 41.3 °C. Also, the “Tm (cooling)” value in the experiment with d(A3GAGGAA3) stood at 37.0 °C.

Turning to “4-(p-nitrophenyl)butyryl-CTCCT [p-NO2C6H4(CH2)3CO]”, the “Tm (heating)” value turned out to be 34.4 °C in the experiment on d(A3AGGAGA3) [1] and 41.6 °C in the experiment with d(A3GAGGAA3). Besides, the “Tm (cooling)” value with d(A3GAGGAA3) was determined as 37.8 °C.

In the case of “4-cyclohexylbutyryl-CCCCC [C6H11(CH2)3CO-CCC CC]”, the “Tm (cooling)” value with d(TA3G5A3T) amounted to 66 °C. The “Tm (heating)” value in the experiment with d(TA3G5A3T) came to 65 °C; with d(TA3G5A3T) (listed as N-4-(cyclohexyl)butyryl-CCCCC) it was 64.9 °C.

For “4-cyclohexylbutyryl-CCTCC [C6H11(CH2)3CO-CCT CC]”, in the experiment on d(TA3G5A3T), the “Tm (cooling)” value is 46 °C and the “Tm (heating)” value was 50 °C. In the experiment on d(TA3G5A3T) (mismatched complex), the “lowering of Tm (cooling) by a single base-pair mismatch” value is 10 °C and the “lowering of Tm (heating) by a single base-pair mismatch” value came to 15 °C. In the experiment with d(A3GGAGGA3) [2] (setting [5]), the “Tm (cooling)” value is 51 °C and the “Tm (heating)” value came out at 60 °C. Moreover, in the experiment on d(A3GGAGGA3) [2] (Table 3, N-4-(cyclohexyl)butyryl cap, listed as N-4-(cyclohexyl)butyryl-CCTCC), the “Tm (heating)” value was 60.8 °C.

Consider “4-cyclohexylbutyryl-CTCCT [C6H11CH2CH2CH2CO]”, for which the “Tm (heating)” value in the experiment on d(A3AGGAGA3) [1] turned out to be 33.4 °C. In the experiment with d(A3GAGGAA3), the “Tm (cooling)” value amounted to 43.7 °C and the “Tm (heating)” value is 47.9 °C. Besides, in the experiment with d(A3GAGGAA3) (parallel, heating, cooling), the “Tm increase compared to the parent N-acetylated αPNA” value was 11–12 °C.

Turning to 4-phenylbutyryl-CTCCT [C6H5(CH2)3CO], in the experiment with d(A3AGGAGA3) [1], the “Tm (heating)” value came to 33.6 °C. Further, in the experiment on d(A3GAGGAA3), the “Tm (cooling)” value worked out at 38.5 °C and the “Tm (heating)” value came out at 41.8 °C.

For “Ac-Cys^Acm-Lys-(Ser^C-Ala2-Lys)2-Ser^T-(Ala2-Lys-Ser^C)2-Gly-Lys-NH2 [CCTCC(b2)]”, the Tm in the experiment with d(TA3G5A3T) (TE-buffer) worked out at 38 °C; in the experiment with d(A3GGAGGA3) [2] (Table 1) it was 49 °C; in the experiment on d(A3GAGGAA3) (Table 1, parallel (N/5′) orientation), 37 °C; with d(A3AGGAGA3) [4], 32 °C. This substance also showed a CD intensity minimum with d(A3GGAGGA3) [3] of 50 mol % αPNA.

Turning to n-butyryl-CTCCT [CH3CH2CH2CO], in the experiment with d(A3AGGAGA3) [1], the “Tm (heating)” value came to 30.2 °C. Also, in the experiment with d(A3GAGGAA3), the “Tm (cooling)” value turned out to be 36.7 °C and the “Tm (heating)” value is 40.0 °C.

Consider n-hexanoyl-CTCCT [CH3CH2CH2CH2CH2CO], for which the “Tm (heating)” value in the experiment on d(A3AGGAGA3) [1] worked out at 33.4 °C. In the experiment with d(A3GAGGAA3), the “Tm (cooling)” value came to 35.0 °C and the “Tm (heating)” value amounted to 41.0 °C.
